Measurements reported in PubChem BioAssay (NCI).
Values joined by “and” are separate entries in the source; they are usually repeats but may differ in a detail not shown here. Equal entries are not always repeated.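 Cells were grown in 96-well plates and exposed to each compound for 48 hours at five concentrations; endpoints were interpolated linearly between bracketing concentrations, or set to the highest concentration if not reached. The concentration for 50% growth inhibition is given as GI50. TGI is the concentration that stops growth completely.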

Key:
Test in all cases: inhibition of tumour cell growth, NCI panel, 48 h
[1] = test system: U251 CNS
[2] = test system: LOX IMVI melanoma
[3] = test system: MDA-MB-435
[4] = test system: SW-620 colon
[5] = test system: UACC-62 melanoma
[6] = test system: BT-549 breast
[7] = test system: NCI-H226 lung
[8] = test system: MOLT-4 leukemia

Compound: N#C/C(=C\c1ccc[nH]1)c1cc(-c2ccc(Cl)cc2)nn1-c1ccccc1
- GI50 [1]: 7.07 µM
- TGI [1]: 24 µM
- GI50 [2]: 4.9 µM
- TGI [2]: 16.8 µM
- GI50 [3]: 2.7 µM
- TGI [3]: 13.2 µM
- GI50 [4]: 3.75 µM
- TGI [4]: > 41.8 µM
- GI50 [5]: 7.39 µM
- TGI [5]: 28.2 µM
- GI50 [6]: 4.72 µM
- TGI [6]: 15.7 µM
- GI50 [7]: 7.71 µM
- TGI [7]: 37.2 µM
- GI50 [8]: 2.52 µM
- TGI [8]: 8.23 µM

Compound: COC(=O)Nc1nc2ccc(C(=O)c3cccc(I)c3)cc2[nH]1
- GI50 [1]: 0.0559 µM
- TGI [1]: 12.3 µM
- GI50 [2]: 0.0612 µM
- TGI [2]: 3.92 µM
- GI50 [3]: 0.0211 µM
- TGI [3]: 0.051 µM
- GI50 [4]: 0.0394 µM
- TGI [4]: 14.9 µM
- GI50 [5]: 0.234 µM
- TGI [5]: 18.1 µM
- GI50 [6]: 0.16 µM
- TGI [6]: 6.57 µM
- GI50 [7]: 0.259 µM
- TGI [7]: 25.4 µM
- GI50 [8]: 0.0609 µM
- TGI [8]: 10.6 µM

Compound: COC(=O)CC[C@@H](C)[C@H]1CC[C@H]2[C@@H]3CC[C@@H]4C[C@H](O)CC[C@]4(C)[C@H]3CC[C@]12C
- TGI [1]: 43.2 µM
- TGI [2]: 35.7 µM
- TGI [3]: 33 µM
- TGI [4]: > 100 µM
- TGI [5]: 34.3 µM
- TGI [6]: 33.8 µM
- TGI [7]: 36.6 µM
- TGI [8]: 40.7 µM

Compound: Nc1ccc(C#Cc2ccccc2C#CCCCCO)cc1
- GI50 [1]: 11.1 µM
- TGI [1]: 23.1 µM
- GI50 [2]: 16.2 µM
- TGI [2]: 29.7 µM
- GI50 [3]: 19.7 µM
- TGI [3]: 36.6 µM
- GI50 [4]: 17.6 µM
- TGI [4]: 33.1 µM
- GI50 [5]: 14.9 µM
- TGI [5]: 28.3 µM
- GI50 [6]: 16.3 µM
- TGI [6]: 34.8 µM
- GI50 [7]: 17.5 µM
- TGI [7]: 40.5 µM
- GI50 [8]: 16.5 µM
- TGI [8]: 35.1 µM

Compound: Cc1ccsc1C(NC(=O)c1ccccc1)c1cc(Cl)c2cccnc2c1O (stereo not drawn)
- GI50 [1]: 0.318 µM
- TGI [1]: 10.4 µM
- GI50 [2]: 0.504 µM
- TGI [2]: 2.32 µM
- GI50 [3]: 0.505 µM
- TGI [3]: 17.2 µM
- GI50 [4]: 0.4 µM
- TGI [4]: 15 µM
- GI50 [5]: 0.339 µM
- TGI [5]: 5.22 µM
- GI50 [6]: 2.04 µM
- TGI [6]: 21.3 µM
- GI50 [7]: 1.4 µM
- TGI [7]: 7.35 µM
- GI50 [8]: 0.622 µM
- TGI [8]: 34.6 µM

Compound: Cc1ccc(NC(=O)COc2ccc(Cl)cc2)cc1Cl
- TGI [1]: > 100 µM
- TGI [2]: > 100 µM
- TGI [3]: > 100 µM
- TGI [4]: > 100 µM
- TGI [5]: > 100 µM
- TGI [6]: > 100 µM
- TGI [7]: > 100 µM
- TGI [8]: > 100 µM

Compound: [N-]=[N+]=C(C(=O)CN1CCCC1=O)S(=O)(=O)c1ccccc1
- TGI [1]: > 100 µM
- TGI [2]: > 100 µM
- TGI [3]: > 100 µM
- TGI [4]: > 100 µM
- TGI [5]: > 100 µM
- TGI [6]: > 100 µM
- TGI [7]: > 100 µM
- TGI [8]: > 100 µM

Compound: O=C1C2=C(C(=O)c3ccccc31)C(O)(S(=O)(=O)O)C(O)(S(=O)(=O)O)C1N=CC=CC21 (stereo not drawn)
- GI50 [1]: 3.85 µM and 2.69 µM
- TGI [1]: 28.8 µM and 17.8 µM
- GI50 [2]: 3.1 µM and 2.84 µM
- TGI [2]: 54.9 µM and 20.3 µM
- GI50 [3]: 4.56 µM and 3.56 µM
- TGI [3]: 80.5 µM and 24.8 µM
- GI50 [4]: 3.65 µM and 4.29 µM
- TGI [4]: 96.9 µM and 17.2 µM
- GI50 [5]: 6.17 µM and 4.52 µM
- TGI [5]: 19.4 µM and 18.7 µM
- GI50 [6]: 5.88 µM and 5.04 µM
- TGI [6]: 39.9 µM and 25.8 µM
- GI50 [7]: 9.22 µM and 11.9 µM
- TGI [7]: 69.2 µM and 27.7 µM
- GI50 [8]: 7.06 µM and 4.38 µM
- TGI [8]: > 100 µM and 34.4 µM

Compound: Cc1cc(I)cc(CN(C)CCCN2CCC(C)CC2)c1O
- GI50 [1]: 15.2 µM
- TGI [1]: 29.8 µM
- GI50 [2]: 15.5 µM
- TGI [2]: 31.4 µM
- GI50 [3]: 11.6 µM
- TGI [3]: 25 µM
- GI50 [4]: 13.6 µM
- TGI [4]: 26.6 µM
- GI50 [5]: 14.2 µM
- TGI [5]: 30.4 µM
- GI50 [6]: 11.2 µM
- TGI [6]: 23.8 µM
- GI50 [7]: 17.2 µM
- TGI [7]: 39.1 µM
- GI50 [8]: 10 µM
- TGI [8]: 26.4 µM

Compound: O=C1/C=C/[C@@H](O)[C@@H]2C[C@@H](O)C[C@H]2/C=C/CCC[C@H](CCO)O1
- GI50 [1]: 0.382 µM
- TGI [1]: > 100 µM
- GI50 [2]: 0.157 µM
- TGI [2]: 0.377 µM
- GI50 [3]: 0.254 µM
- TGI [3]: > 100 µM
- GI50 [4]: 0.216 µM
- TGI [4]: 0.646 µM
- GI50 [5]: 0.186 µM
- TGI [5]: > 100 µM
- GI50 [6]: 0.33 µM
- TGI [6]: > 31.5 µM
- GI50 [7]: 0.0684 µM
- TGI [7]: 0.287 µM
- GI50 [8]: 0.358 µM

Compound: Cc1[nH]nc(C(F)(F)F)c1Cc1sc2c(c1C(=O)N1C[C@](C)(O)CO1)c(=O)n(C)c(=O)n2C(C)C
- GI50 [1]: > 100 µM
- TGI [1]: > 100 µM
- GI50 [2]: > 100 µM
- TGI [2]: > 100 µM
- GI50 [3]: > 100 µM
- TGI [3]: > 100 µM
- GI50 [4]: > 100 µM
- TGI [4]: > 100 µM
- GI50 [5]: > 100 µM
- TGI [5]: > 100 µM
- GI50 [6]: > 100 µM
- TGI [6]: > 100 µM
- GI50 [7]: > 100 µM
- TGI [7]: > 100 µM
- GI50 [8]: > 100 µM
- TGI [8]: > 100 µM

Compound: O=C1OC(OC/C(Br)=C(\Br)COC2OC(=O)C(Cl)=C2Cl)C(Cl)=C1Cl (stereo not drawn)
- TGI [1]: 19 µM
- TGI [2]: 8.29 µM
- TGI [3]: 21.4 µM
- TGI [4]: 9.9 µM
- TGI [5]: 16.9 µM
- TGI [6]: 6.45 µM
- TGI [7]: 40.8 µM
- TGI [8]: 2.38 µM

Compound: COc1ccc(C(=O)/C=C/c2ccc(OCc3cccc(C(F)(F)F)c3)c(OC)c2)cc1OC
- GI50 [1]: 61.4 µM
- TGI [1]: > 1000 µM
- GI50 [2]: 32.8 µM
- TGI [2]: > 1000 µM
- GI50 [3]: 45.8 µM
- TGI [3]: > 1000 µM
- GI50 [4]: 49.7 µM
- TGI [4]: > 1000 µM
- GI50 [5]: 52.2 µM
- TGI [5]: > 1000 µM
- GI50 [6]: 38.1 µM
- TGI [6]: 476 µM
- GI50 [7]: 83.1 µM
- TGI [7]: > 1000 µM
- GI50 [8]: 27.7 µM
- TGI [8]: > 1000 µM

Compound: COc1nn(C)cc1Nc1nccc(-c2c[nH]c3c(NC(=O)[C@@H](C)N4CCN(C)CC4)cccc23)n1
- GI50 [1]: 43.7 µM
- TGI [1]: > 100 µM
- GI50 [2]: 17.1 µM
- TGI [2]: 36.5 µM
- GI50 [3]: 24.3 µM
- TGI [3]: 82.3 µM
- GI50 [4]: 40.8 µM
- TGI [4]: > 100 µM
- GI50 [5]: 40.6 µM
- TGI [5]: > 100 µM
- GI50 [6]: 22.5 µM
- TGI [6]: 72.9 µM
- GI50 [7]: 14.3 µM
- TGI [7]: > 100 µM
- GI50 [8]: 37.8 µM
- TGI [8]: > 100 µM

Compound: COc1c(C(N)=O)cc(-c2ccc(Cl)cc2)cc1-c1ccc(S(N)(=O)=O)cc1
- GI50 [1]: 9.52 µM
- TGI [1]: > 25 µM
- GI50 [2]: 12.4 µM
- TGI [2]: > 25 µM
- GI50 [3]: 11.4 µM
- TGI [3]: > 25 µM
- GI50 [4]: 12 µM
- TGI [4]: > 25 µM
- GI50 [5]: 12.8 µM
- TGI [5]: > 25 µM
- GI50 [6]: 10.5 µM
- TGI [6]: > 25 µM
- GI50 [7]: 9.52 µM
- TGI [7]: > 25 µM
- GI50 [8]: 8.96 µM
- TGI [8]: > 20.7 µM

Compound: CN(C(=O)C(C)(C)C)c1ccccc1I(=O)=O
- GI50 [1]: 89.1 µM
- TGI [1]: > 100 µM
- GI50 [2]: > 100 µM
- TGI [2]: > 100 µM
- GI50 [3]: > 100 µM
- TGI [3]: > 100 µM
- GI50 [4]: > 100 µM
- TGI [4]: > 100 µM
- GI50 [5]: > 100 µM
- TGI [5]: > 100 µM
- GI50 [6]: > 100 µM
- TGI [6]: > 100 µM
- GI50 [7]: > 100 µM
- TGI [7]: > 100 µM
- GI50 [8]: 3.45 µM
- TGI [8]: > 100 µM
